{"source": "paper PMC10768847", "about": "(Journal of medicinal chemistry, 2023)", "key": {"E. coli BL21": {"test_system": "E. coli BL21", "format": "cell-based, Escherichia coli", "conditions": "for Fold change: MIC compared to that of Api-137; for MIC: microbroth dilution, 96-well plates, E. coli BL21 OD600 = 0.002 in 0.3 Tryptic Soy Broth, overnight at 37 °C, visible cell density, run in duplicate"}, "E. coli BL21 RF2(R262C)": {"test_system": "E. coli BL21 RF2(R262C)", "test": "Minimum inhibitory concentration against release factor mutant strain", "format": "cell-based, Escherichia coli", "conditions": "Table 5; release factor mutant resistant to Api-137"}}, "note": "Where two headings read alike, the source gives them in different places. Where a SMILES comes first, the peptide text is derived from it. [ ]: non-standard residue; d: D form. The star is where a group is joined. Orn(α-tetramethylguanidino) = CN(C)C(=N[C@@H](CCCN)C(=O)*)N(C)C; Arg(Me) = CNC(=N)NCCC[C@H](N)C(=O)O; dLeu(ol) = CC(C)C[C@@H](N)CO; NHIsopentyl = CC(C)CCN*"}
{"molecule": "gu-ONNRPVYIPRPRPPHPRL-OH [Compound 23]", "values": [{"measurement": "Fold change", "setting": "E. coli BL21; Table 3", "result": 2}, {"measurement": "MIC", "setting": "E. coli BL21; Table 3", "result": "0.16 to 0.3", "unit": "µM"}]}
{"molecule": "CC[C@H](C)[C@H](NC(=O)[C@H](Cc1ccc(O)cc1)NC(=O)[C@@H](NC(=O)[C@@H]1CCCN1C(=O)[C@H](CCCNC(=N)N)NC(=O)[C@H](CC(N)=O)NC(=O)[C@H](CC(N)=O)NC(=O)[C@H](CCCN)N=C(N(C)C)N(C)C)C(C)C)C(=O)N1CCC[C@H]1C(=O)N[C@@H](CCCNC(=N)N)C(=O)N1CCC[C@H]1C(=O)N[C@@H](CCCNC(=N)N)C(=O)N1CCC[C@H]1C(=O)N1CCC[C@H]1C(=O)N[C@@H](Cc1c[nH]c2ccccc12)C(=O)N1CCC[C@H]1C(=O)N[C@@H](CCCNC(=N)N)C(=O)N[C@@H](CC(C)C)C(=O)O", "note": "[Compound 14] ({Orn(α-tetramethylguanidino)}-NNRPVYIPRPRPPWPRL-OH)", "values": [{"measurement": "Fold change", "setting": "E. coli BL21; Table 2", "result": "8–16"}, {"measurement": "MIC", "setting": "E. coli BL21; Table 2", "result": "1.2 to 2.5", "unit": "µM"}]}
{"molecule": "gu-ONNRPVYIPRPRPPHPRL-OH [Compound 25]", "values": [{"measurement": "MIC", "setting": "E. coli BL21; Table 3", "result": "0.08 to 0.16", "unit": "µM"}]}
{"molecule": "gu-ONNRPVYIPRPRPPHPRL-OH [Compound 15]", "values": [{"measurement": "Fold change", "setting": "E. coli BL21; Table 3", "result": 4}, {"measurement": "MIC", "setting": "E. coli BL21; Table 3", "result": 0.62, "unit": "µM"}]}
{"molecule": "gu-ONNRPVYIPRPRPPHPRL-OH [Compound 22]", "values": [{"measurement": "Fold change", "setting": "E. coli BL21; Table 3", "result": "2–4"}]}
{"molecule": "gu-ONNRPVYIPRPRPPHPRL-OH [Compound 18]", "values": [{"measurement": "Fold change", "setting": "E. coli BL21; Table 3", "result": 4}, {"measurement": "MIC", "setting": "E. coli BL21; Table 3", "result": 0.62, "unit": "µM"}]}
{"molecule": "CC[C@H](C)[C@H](NC(=O)[C@H](Cc1ccc(O)cc1)NC(=O)[C@@H](NC(=O)[C@@H]1CCCN1C(=O)[C@H](CCCNC(=N)N)NC(=O)[C@H](CC(N)=O)NC(=O)[C@H](CC(N)=O)NC(=O)[C@H](CCCN)N=C(N(C)C)N(C)C)C(C)C)C(=O)N1CCC[C@H]1C(=O)N[C@@H](CCCNC(=N)N)C(=O)N1CCC[C@H]1C(=O)N[C@@H](CCCNC(=N)N)C(=O)N1CCC[C@H]1C(=O)N1CCC[C@H]1C(=O)N[C@@H](Cc1c[nH]cn1)C(=O)N1CCC[C@H]1C(=O)N[C@@H](CCCNC(=N)N)C(=O)N[C@@H](CO)CC(C)C", "note": "[Compound 6] ({Orn(α-tetramethylguanidino)}-NNRPVYIPRPRPPHPR[dLeu(ol)])", "values": [{"measurement": "Fold change", "setting": "E. coli BL21; Table 1", "result": "62–128"}]}
{"molecule": "gu-ONNRPVYIPRPRPPHPRL-OH [Compound 21]", "values": [{"measurement": "Fold change", "setting": "E. coli BL21; Table 3", "result": "2–4"}]}
{"molecule": "gu-ONNRPVYIPRPRPPHPRL-OH [Compound 26]", "values": [{"measurement": "Fold change", "setting": "E. coli BL21; Table 3", "result": 1}, {"measurement": "MIC", "setting": "E. coli BL21; Table 3", "result": "0.08 to 0.16", "unit": "µM"}]}
{"molecule": "CC[C@H](C)[C@H](NC(=O)[C@H](Cc1ccc(O)cc1)NC(=O)[C@@H](NC(=O)[C@@H]1CCCN1C(=O)[C@H](CCCNC(=N)N)NC(=O)[C@H](CC(N)=O)NC(=O)[C@H](CC(N)=O)NC(=O)[C@H](CCCN)N=C(N(C)C)N(C)C)C(C)C)C(=O)N1CCC[C@H]1C(=O)N[C@@H](CCCNC(=N)N)C(=O)N1CCC[C@H]1C(=O)N[C@@H](CCCNC(=N)N)C(=O)N1CCC[C@H]1C(=O)N1CCC[C@H]1C(=O)N[C@@H](Cc1c[nH]cn1)C(=O)N1CCC[C@H]1C(=O)N[C@@H](CCCNC(=N)N)C(=O)NCCC(C)C", "note": "[Compound 4] ({Orn(α-tetramethylguanidino)}-NNRPVYIPRPRPPHPR-NHIsopentyl)", "values": [{"measurement": "MIC", "setting": "E. coli BL21; Table 1", "result": "> 40", "unit": "µM"}]}
{"molecule": "CC[C@H](C)[C@H](NC(=O)[C@H](Cc1ccc(O)cc1)NC(=O)[C@@H](NC(=O)[C@@H]1CCCN1C(=O)[C@H](CCCNC(=N)N)NC(=O)[C@H](CC(N)=O)NC(=O)[C@H](CC(N)=O)NC(=O)[C@H](CCCN)N=C(N(C)C)N(C)C)C(C)C)C(=O)N1CCC[C@H]1C(=O)N[C@@H](CCCNC(=N)N)C(=O)N1CCC[C@H]1C(=O)N[C@@H](CCCNC(=N)N)C(=O)N1CCC[C@H]1C(=O)N1CCC[C@H]1C(=O)N[C@@H](Cc1c[nH]cn1)C(=O)N1CCC[C@H]1C(=O)N[C@@H](CCCNC(=N)NC)C(=O)N[C@@H](CC(C)C)C(=O)O", "note": "[Compound 3] ({Orn(α-tetramethylguanidino)}-NNRPVYIPRPRPPHP[Arg(Me)]L-OH)", "values": [{"measurement": "minimum inhibitory concentration, BL21 RF2(R262C)", "setting": "E. coli BL21 RF2(R262C)", "result": ">25"}]}
